“And” between values parts separate entries of the source, which are not always exact repeats. Identical values can stand only once.
Legend:
[1] = Pharmacokinetic assessment in dogs; type: in vivo; details: male, beagle, dog
Procedure: Adult beagle dogs (male, 12 months of age, n = 3), weighing approximately 10 kg, received a […] of the test compound at 500 mg bid delivered in capsule form. Blood (approximately 2.5 mL) was collected into lithium heparin tubes at 0, 1 h, 2 h, 4 h, 8 h, and 24 h post-day 1 and post-day 5 dose for PK assessment using mass spectrometry. Blood (approximately 2 mL) was also collected and divided into EDTA and standard clot tubes on day 6 post-dose for determination of CBC and clinical chemistry parameters, respectively, and analyzed at the Michigan State University Veterinary Diagnostic Laboratory. Clinical observations were conducted daily on non-dosing days and twice on dosing days.

[2] = tested on: RPMI-8226, L363 and H929 cells; test: Assessment of apoptosis, Caspase-Glo 3/7 assay; type: cell-based, human; details: all three MM cell lines, 24 h (Figure S1)
Procedure: Apoptosis was evaluated with the Caspase-Glo 3/7 assay kit (Promega; Madison, WI, USA) according to the manufacturer’s instructions. […] Staurosporine (81590, Cayman), an apoptosis inducer, was used as a positive control at 10 μM concentration for 3 h of incubation. After the incubation, the caspase reagent was added to the cells and incubated at 37 °C for 30 min. The luminescent signal was detected by the EnVision plate reader (PerkinElmer; Waltham, MA, USA) and the data were analyzed by Graph Pad Prism (9.2.0, Graph Pad Software Inc., San Diego, CA, USA).

[3] = tested on: primary cells from a BTZ refractory MM patient; test: Primary cell viability, CellTiter-Glo, 72 h; details: Homo sapiens
Description: (§2) White blood cells (WBCs) were separated from red blood cells by the Ficoll density gradient. Multiple myeloma cells were then isolated from WBCs using human CD138 affinity magnetic beads (Miltenyi Biotec; cat#130-093-062; Gaithersburg, MD, USA) following the manufacturer’s protocol. Cells were cryopreserved in 10% DMSO in FBS. Revived cells were maintained in an RPMI medium with 10% FBS for 10 days prior to treatment. […] Cells were equilibrated to RT and CellTiter-Glo (Promega; Madison, WI, USA) solution (100 μL) was added and incubated with shaking for 10 min at RT. The assay plate was then allowed to equilibrate for 5 min at RT and luminescent readings were taken on a SpectraMax® M5. Data are presented as a percentage of the vehicle control for each experimental condition, after background subtraction. Error bars represent SD for triplicate wells.

[4] = tested on: c-MYC; test: c-MYC degradation ELISA in H929 cells; type: cell-based, human; details: various concentrations, 4 h
Procedure: (§1) ELISA: c-MYC degradation in L363 and H929 cells. L363 cells were grown in T-25 flasks in RPMI-1640 medium supplemented with 15% heat-inactivated fetal bovine serum (FBS) and 1% penicillin/streptomycin at 37 °C and 5% CO2. H929 cells were grown in T-25 flasks in RPMI-1640 medium supplemented with 10% FBS, 0.05 mM 2-mercaptoethanol, and 1% penicillin/streptomycin. Cells were treated with DMSO, TCH-165, or bortezomib (BTZ) at the indicated concentrations for 4 h (0.1% final DMSO concentration). Following the 4-hour treatment, cells were pelleted, washed with chilled PBS buffer, and resuspended in chilled lysis buffer (10 mM Tris, 100 mM NaCl, 1 mM EDTA, 1 mM EGTA, 1 mM NaF, 20 mM Na4P2O7, 2 mM Na3VO4, 1% Triton X-100, 10% glycerol, 0.1% SDS, and 0.5% deoxycholate; pH 7.4) supplemented with Complete Mini Protease Inhibitor Cocktail (Sigma Aldrich). The lysate was clarified by centrifugation at 5000 rpm (4 °C) for 15 min. Total protein of the lysate was quantified by bicinchoninic acid assay (BCA assay, Thermofisher Scientific; Waltham, MA, USA). and normalized to 1.5 mg/mL total protein. The supplied protocol for the human c-MYC (Total) ELISA Kit (Invitrogen; Waltham, MA, USA) was used to determine the total c-MYC concentration of the lysates. Prior to loading lysate into ELISA plate wells, lysate (5 µL) was diluted into 45 µL of supplied standard diluent buffer.

[5] = tested on: primary human MM cells of newly diagnosed patient; test: Primary cell viability, CellTiter-Glo, 72 h
Description: as §2

[6] = tested on: c-MYC; test: c-MYC degradation ELISA in L363 cells; type: cell-based, human; details: various concentrations, 4 h
Procedure: as §1

[7] = tested on: 26S proteasome; set-up: method as in PMID 29897236; details: cited from earlier work
[8] = tested on: human constitutive 20S proteasome; test: Proteasome activity in purified protein assay (fluorogenic AMC peptide substrates); type: biochemical
Procedure: The proteolytic activity of the 20S proteasome can be monitored in vitro by measuring the cleavage of fluorogenic peptide substrates for the different catalytic sites as an increase in 7-amino-4-methylcoumarin (AMC) fluorescence over time, as previously reported. Purified human 20S proteasome was pre-treated with a concentration range of TCH-165 or DMSO (vehicle control) for 15 min at 37 °C, on a black flat/clear bottom 96-well plate containing 1 nM of human constitutive 20S proteasome in 50 mM Tris-HCl pH 7.5. Fluorogenic substrates, Suc-LLVY-AMC (CT-L activity, 10 μM), Z-LLE-AMC (Casp-L activity, 10 μM), Boc-LRR-AMC (Tryp-L activity, 20 μM), were then added and the enzymatic activity measured at 37 °C on a SpectraMax M5e spectrometer by measuring an increase in the fluorescence unit per minute for 1 h at 380–460 nm. The release of AMC was monitored as fluorescence over time for 1 h and the resulting 20S activity changes were determined by comparing to the untreated 20S and calculating the fold-increase in activity over vehicle control for each analog at a given concentration.

[9] = tested on: proteasome, CT-L substrate Suc-LLVY-AMC, canine PBMC lysate; test: Proteasome activity in canine PBMC lysate (target engagement); type: in vivo; details: treated canines, 1920 mg BID
Procedure: Canine blood samples obtained in BD Vacutainer CPT mononuclear cell preparation tubes containing sodium citrate were used to isolate PBMCs. For PBMC isolation, sample tubes were inverted five times and equilibrated for the centrifuge with sterile PBS buffer. Tubes were centrifuged at 1800× g with the acceleration set at 5 and a break set to 0 at room temperature for 30 min. Half of the plasma layer was discarded. Using a sterile Pasteur pipette, the buffy coat was collected and put into a 15 mL conical tube and sterile PBS buffer was added to 10 mL. The conical tubes were centrifuged at 300× g for 10 min and the supernatant was removed. Cells were resuspended in 150 µL of lysis buffer (50 mM Tris-HCl, 2 mM Na2ATP, 5 mM MgCl2, 0.5 mM EDTA, 10% glycerol) and lysed by vortex. Samples were centrifuged for 20 min at 14,000× g. The total protein concentration of the supernatant was determined using bicinchoninic acid assay (BCA assay), and the samples were normalized to 1 mg/mL. Samples were diluted to 0.036 µg/µL in assay buffer (38 mM Tris, 100 mM NaCl, pH 7.8) and 140 µL of the diluted sample was added to three wells of a black, clear-bottom 96-well plate. Substrate stock solution (10 µL of 375 µM Suc-LLVY-AMC in assay buffer) was added to each well. Fluorescence was measured and kinetic readings were taken every 5 min at 37 °C, at 380/440 nm for 1 h.

[10] = blood, dogs, 50 mg/kg bid oral capsule

Cmax [1, 10]: 1600 nM
Tmax [1, 10]: 24 h
Cmax ([1]; plasma, dogs (n=3), means, 50 mg/kg bid oral): 1570 nM
AUC ([1]; plasma, dogs (n=3), means, 50 mg/kg bid oral, read-out: AUC (nM) (0-24 for dogs)): 19.8 µM·h
EC200 (concentration at which TCH-165 doubles 20S activity) ([8]; CT-L site (b-5), substrate Suc-LLVY-AMC): 1.5 µM
Fold^M (maximum fold enhancement of 20S activity) ([8]; CT-L site, Suc-LLVY-AMC): 810%
Fold^M (maximum fold enhancement of 20S activity) ([8]; Casp-L site, Z-LLE-AMC): 1290%
Fold^M (maximum fold enhancement of 20S activity) ([8]; Tryp-L site, Boc-LRR-AMC): 500%
drug concentration by mass spectrometry [9]: 1400 nM and 1100 nM
Compound: CCOC(=O)[C@]1(c2ccccc2)N=C(c2ccc(OC)cc2)N(Cc2ccccc2)[C@@H]1c1ccc(NCc2ccccc2)cc1 [TCH-165]
induction of apoptosis (caspase 3/7 activity) [2]: induction of apoptosis
CC50 [3]: 8.1 µM
MYC clearance (percent MYC remaining) [4]: induced clearance of MYC
CC50 [5]: 1 µM
MYC clearance (percent MYC remaining) [6]: induced clearance of MYC
26S proteasome activity [7]: not affected
concentrations at which structured proteins targeted by the 26S-ubiquitin-dependent proteasome system were not affected [7]: < 30 µM
concentration at which disassembly of the 26S proteasome inhibited 26S-mediated degradation of ubiquitinylated substrates ([7]; various cell lines, including RPMI-8226): > 30 µM
